Data published in patent US10202658B2, “Methods for determining hypersusceptibility of HIV-1 to non-nucleoside reverse transcriptase inhibitors” (Monogram Biosciences, Inc., priority 2005, dated 2019).

System: HIV-1 clinical isolates grouped by RT mutations
Test: Pairwise comparison of NNRTI fold change between groups of clinical isolates (Student's T-test, Bonferroni's Multiple Comparison Test)
Assay type: cell-based
Description: This example provides methods and compositions for identifying mutations that correlate with hypersusceptibility to a NNRTI. Resistance test vectors were constructed and used as described in Example 1. Resistance test vectors derived from patient samples or clones derived from the resistance test vector pools were tested in a resistance assay to determine accurately and quantitatively the relative EFV, DLV, or NVP resistance or susceptibility compared to the median observed resistance or susceptibility.
To identify mutations associated with NNRTI hypersusceptibility, the following analysis was performed. […] The TAMs referenced in. Table 1 include M41L, D67N, K70R, L210W, T215FY, and K219X, while the NAMs referenced include K65R, T69X, L74IV, V75X, and M184IV. Isolates without NRTI, NNRTI or PI mutations served as a wild type (WT) reference group. Further comparison groups comprised isolates with three TAMS including T215Y (+/−H208Y, +/−V118I) or three TAMS including K70R. Scatter plots and statistical tests (See FIGS. 1-6) were generated using Prism 4.0 (GraphPad, San Diego, Calif.)
In addition, a pairwise comparison between two sets of data was conducted using Bonferroni's Multiple Comparison Test using the Prism 4.0 software. The results of the comparison are presented in Tables 2, 3, and 4, appended to the end of this document. Samples with K65R, K65R+M184V, or 2 TAMs in combination with T215Y had over 40% with EFV FC<0.4.

For `Cc1ccnc2c1NC(=O)c1cccnc1N2C1CC1` [NVP, nevirapine], the “Mean Diff. of fold change” value (1 NAM vs 2 NAMs) was 0.2694, the “Mean Diff. of fold change” value (1 NAM vs 3 NAMs) was 0.221 and the “Mean Diff. of fold change” value (1 NAM vs K65R) was 0.3361. For the same compound, the “Mean Diff. of fold change” value (1 NAM vs K65R + M184V) was 0.3786, the “Mean Diff. of fold change” value (1 NAM vs K70R_3_TAMs) was 0.08835 and the “Mean Diff. of fold change” value (1 NAM vs M184V) was −0.01357. The “Mean Diff. of fold change” value (1 NAM vs T69) was −0.03843, the “Mean Diff. of fold change” value (1 NAM vs T215Y_3_TAMs) was 0.211 and the “Mean Diff. of fold change” value (1 NAM vs T215Y_3_TAMs_118) was 0.2013. The “Mean Diff. of fold change” value (1 NAM vs T215Y_3_TAMs_208) was 0.2552, the “Mean Diff. of fold change” value (1 NAM vs T215Y_3_TAMs_no118) was 0.2175 and the “Mean Diff. of fold change” value (1 NAM vs T215Y_3_TAMs_no208) was 0.204. For the same compound, the “Mean Diff. of fold change” value (2 NAMs vs 3 NAMs) was −0.04846, the “Mean Diff. of fold change” value (2 NAMs vs K65R) was 0.06669 and the “Mean Diff. of fold change” value (2 NAMs vs K65R + M184V) was 0.1092. For the same compound, the “Mean Diff. of fold change” value (2 NAMs vs K70R_3_TAMs) was −0.1811, the “Mean Diff. of fold change” value (2 NAMs vs M184V) was −0.283 and the “Mean Diff. of fold change” value (2 NAMs vs T69) was −0.3079. The “Mean Diff. of fold change” value (2 NAMs vs T215Y_3_TAMs) was −0.05842, the “Mean Diff. of fold change” value (2 NAMs vs T215Y_3_TAMs_118) was −0.06817 and the “Mean Diff. of fold change” value (2 NAMs vs T215Y_3_TAMs_208) was −0.01419. For the same compound, the “Mean Diff. of fold change” value (2 NAMs vs T215Y_3_TAMs_no118) was −0.05192, the “Mean Diff. of fold change” value (2 NAMs vs T215Y_3_TAMs_no208) was −0.06547 and the “Mean Diff. of fold change” value (3 NAMs vs K65R) was 0.1151. The “Mean Diff. of fold change” value (3 NAMs vs K65R + M184V) was 0.1577, the “Mean Diff. of fold change” value (3 NAMs vs K70R_3_TAMs) was −0.1326 and the “Mean Diff. of fold change” value (3 NAMs vs M184V) was −0.2345. For the same compound, the “Mean Diff. of fold change” value (3 NAMs vs T69) was −0.2594, the “Mean Diff. of fold change” value (3 NAMs vs T215Y_3_TAMs) was −0.009962 and the “Mean Diff. of fold change” value (3 NAMs vs T215Y_3_TAMs_118) was −0.01971. For the same compound, the “Mean Diff. of fold change” value (3 NAMs vs T215Y_3_TAMs_208) was 0.03427, the “Mean Diff. of fold change” value (3 NAMs vs T215Y_3_TAMs_no118) was −0.003462 and the “Mean Diff. of fold change” value (3 NAMs vs T215Y_3_TAMs_no208) was −0.01701. For the same compound, the “Mean Diff. of fold change” value (K65R + M184V vs K70R_3_TAMs) was −0.2903, the “Mean Diff. of fold change” value (K65R + M184V vs T215Y_3_TAMs) was −0.1676 and the “Mean Diff. of fold change” value (K65R + M184V vs T215Y_3_TAMs_118) was −0.1774. For the same compound, the “Mean Diff. of fold change” value (K65R + M184V vs T215Y_3_TAMs_208) was −0.1234, the “Mean Diff. of fold change” value (K65R + M184V vs T215Y_3_TAMs_no118) was −0.1611 and the “Mean Diff. of fold change” value (K65R + M184V vs T215Y_3_TAMs_no208) was −0.1747. For the same compound, the “Mean Diff. of fold change” value (K65R vs K65R + M184V) was 0.04252, the “Mean Diff. of fold change” value (K65R vs K70R_3_TAMs) was −0.2478 and the “Mean Diff. of fold change” value (K65R vs M184V) was −0.3497. The “Mean Diff. of fold change” value (K65R vs T69) was −0.3746, the “Mean Diff. of fold change” value (K65R vs T215Y_3_TAMs) was −0.1251 and the “Mean Diff. of fold change” value (K65R vs T215Y_3_TAMs_118) was −0.1349. For the same compound, the “Mean Diff. of fold change” value (K65R vs T215Y_3_TAMs_208) was −0.08088, the “Mean Diff. of fold change” value (K65R vs T215Y_3_TAMs_no118) was −0.1186 and the “Mean Diff. of fold change” value (K65R vs T215Y_3_TAMs_no208) was −0.1322. For the same compound, the “Mean Diff. of fold change” value (K70R_3_TAMs vs T215Y_3_TAMs_118) was 0.1129, the “Mean Diff. of fold change” value (K70R_3_TAMs vs T215Y_3_TAMs_no118) was 0.1292 and the “Mean Diff. of fold change” value (M184V vs K65R + M184V) was 0.3922. The “Mean Diff. of fold change” value (M184V vs K70R_3_TAMs) was 0.1019, the “Mean Diff. of fold change” value (M184V vs T69) was −0.02486 and the “Mean Diff. of fold change” value (M184V vs T215Y_3_TAMs) was 0.2246. The “Mean Diff. of fold change” value (M184V vs T215Y_3_TAMs_118) was 0.2148, the “Mean Diff. of fold change” value (M184V vs T215Y_3_TAMs_208) was 0.2688 and the “Mean Diff. of fold change” value (M184V vs T215Y_3_TAMs_no118) was 0.2311. The “Mean Diff. of fold change” value (M184V vs T215Y_3_TAMs_no208) was 0.2175, the “Mean Diff. of fold change” value (T69 vs K65R + M184V) was 0.4171 and the “Mean Diff. of fold change” value (T69 vs K70R_3_TAMs) was 0.1268. For the same compound, the “Mean Diff. of fold change” value (T69 vs T215Y_3_TAMs) was 0.2494, the “Mean Diff. of fold change” value (T69 vs T215Y_3_TAMs_118) was 0.2397 and the “Mean Diff. of fold change” value (T69 vs T215Y_3_TAMs_208) was 0.2937. The “Mean Diff. of fold change” value (T69 vs T215Y_3_TAMs_no118) was 0.2559, the “Mean Diff. of fold change” value (T69 vs T215Y_3_TAMs_no208) was 0.2424 and the “Mean Diff. of fold change” value (T215Y_3_TAMs vs K70R_3_TAMs) was −0.1227. For the same compound, the “Mean Diff. of fold change” value (T215Y_3_TAMs vs T215Y_3_TAMs_118) was −0.00975, the “Mean Diff. of fold change” value (T215Y_3_TAMs vs T215Y_3_TAMs_208) was 0.04423 and the “Mean Diff. of fold change” value (T215Y_3_TAMs vs T215Y_3_TAMs_no118) was 0.0065. For the same compound, the “Mean Diff. of fold change” value (T215Y_3_TAMs vs T215Y_3_TAMs_no208) was −0.007051, the “Mean Diff. of fold change” value (T215Y_3_TAMs_208 vs K70R_3_TAMs) was −0.1669 and the “Mean Diff. of fold change” value (T215Y_3_TAMs_208 vs T215Y_3_TAMs_118) was −0.05398. The “Mean Diff. of fold change” value (T215Y_3_TAMs_208 vs T215Y_3_TAMs_no118) was −0.03773, the “Mean Diff. of fold change” value (T215Y_3_TAMs_208 vs T215Y_3_TAMs_no208) was −0.05128 and the “Mean Diff. of fold change” value (T215Y_3_TAMs_no118 vs T215Y_3_TAMs_118) was −0.01625. For the same compound, the “Mean Diff. of fold change” value (T215Y_3_TAMs_no208 vs K70R_3_TAMs) was −0.1156, the “Mean Diff. of fold change” value (T215Y_3_TAMs_no208 vs T215Y_3_TAMs_118) was −0.002699 and the “Mean Diff. of fold change” value (T215Y_3_TAMs_no208 vs T215Y_3_TAMs_no118) was 0.01355. For the same compound, the “mean fold change (FC) compared to the WT population” value (all groups containing NAMs or the combination of TAMs shown in Table 1, p<0.0001, Student's T-test) was “significantly lower”, the “Mean Diff. of fold change” value (wt vs 1 NAM) was 0.1982 and the “Mean Diff. of fold change” value (wt vs 2 NAMs) was 0.4677. The “Mean Diff. of fold change” value (wt vs 3 NAMs) was 0.4192, the “Mean Diff. of fold change” value (wt vs K65R) was 0.5344 and the “Mean Diff. of fold change” value (wt vs K65R + M184V) was 0.5769. For the same compound, the “Mean Diff. of fold change” value (wt vs K70R_3_TAMs) was 0.2866, the “Mean Diff. of fold change” value (wt vs M184V) was 0.1847 and the “Mean Diff. of fold change” value (wt vs T69) was 0.1598. The “Mean Diff. of fold change” value (wt vs T215Y_3_TAMs) was 0.4092, the “Mean Diff. of fold change” value (wt vs T215Y_3_TAMs_118) was 0.3995 and the “Mean Diff. of fold change” value (wt vs T215Y_3_TAMs_208) was 0.4535. The “Mean Diff. of fold change” value (wt vs T215Y_3_TAMs_no118) was 0.4157 and the “Mean Diff. of fold change” value (wt vs T215Y_3_TAMs_no208) was 0.4022.
